Data published in ChEMBL document CHEMBL1909046, “DrugMatrix in vitro pharmacology data”.
pIC50, pKi: −log10 of the molar value.

What was measured:
[1] = molecular target: cGMP-specific 3',5'-cyclic phosphodiesterase (Homo sapiens, UniProt O76074); assay: DRUGMATRIX: Phosphodiesterase PDE5 enzyme inhibition (substrate: [3H]cGMP + cGMP); format: tissue-based, Platelet; settings: platelet; Not Active = under 50% inhibition at 10 µM
[2] = molecular target: Sigma non-opioid intracellular receptor 1 (Homo sapiens, UniProt Q99720); assay: DRUGMATRIX: Sigma1 radioligand binding (ligand: [3H] Haloperidol); format: cell membranes, Jurkat, Membrane; settings: Not Active = under 50% inhibition at 10 µM; for IC50: jurkat
Sequence of Sigma non-opioid intracellular receptor 1 (Q99720 whole entry): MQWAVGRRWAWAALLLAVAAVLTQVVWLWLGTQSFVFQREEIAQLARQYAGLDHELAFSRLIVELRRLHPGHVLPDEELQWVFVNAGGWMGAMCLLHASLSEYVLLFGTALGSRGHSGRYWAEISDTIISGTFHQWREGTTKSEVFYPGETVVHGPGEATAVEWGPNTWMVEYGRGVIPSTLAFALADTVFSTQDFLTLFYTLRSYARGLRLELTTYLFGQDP

D(1A) dopamine receptor = D(1A) dopamine receptor (Homo sapiens, UniProt P21728); assay: DRUGMATRIX: Dopamine D1 radioligand binding (ligand: [3H] SCH-23390); format: cell membranes, CHO, Membrane; settings: cho; Not Active = under 50% inhibition at 10 µM
Sequence of D(1A) dopamine receptor (P21728 whole entry): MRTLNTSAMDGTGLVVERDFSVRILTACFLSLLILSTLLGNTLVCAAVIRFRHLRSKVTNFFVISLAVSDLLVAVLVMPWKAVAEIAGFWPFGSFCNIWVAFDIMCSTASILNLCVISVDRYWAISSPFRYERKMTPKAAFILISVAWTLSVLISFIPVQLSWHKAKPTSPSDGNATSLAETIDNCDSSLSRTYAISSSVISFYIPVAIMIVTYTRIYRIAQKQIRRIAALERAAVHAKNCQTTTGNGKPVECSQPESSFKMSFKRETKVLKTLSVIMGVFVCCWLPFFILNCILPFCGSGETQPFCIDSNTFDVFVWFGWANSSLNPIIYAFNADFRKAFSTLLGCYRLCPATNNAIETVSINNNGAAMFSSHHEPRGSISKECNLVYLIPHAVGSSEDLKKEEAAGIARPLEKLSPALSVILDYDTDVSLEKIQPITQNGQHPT

[3] = DRUGMATRIX: Glutamate, Kainate radioligand binding (ligand: [3H] Kainic acid); format: cell membranes, Rattus norvegicus, Wistar, Brain, Membrane; settings: Not Active = under 50% inhibition at 10 µM
[4] = molecular target: C-C chemokine receptor type 5 (Homo sapiens, UniProt P51681); format: cell membranes, Membrane; settings: hek293; also: in other assays of this panel Not Active means under 50% inhibition at 10 µM
Sequence of C-C chemokine receptor type 5 (P51681 whole entry): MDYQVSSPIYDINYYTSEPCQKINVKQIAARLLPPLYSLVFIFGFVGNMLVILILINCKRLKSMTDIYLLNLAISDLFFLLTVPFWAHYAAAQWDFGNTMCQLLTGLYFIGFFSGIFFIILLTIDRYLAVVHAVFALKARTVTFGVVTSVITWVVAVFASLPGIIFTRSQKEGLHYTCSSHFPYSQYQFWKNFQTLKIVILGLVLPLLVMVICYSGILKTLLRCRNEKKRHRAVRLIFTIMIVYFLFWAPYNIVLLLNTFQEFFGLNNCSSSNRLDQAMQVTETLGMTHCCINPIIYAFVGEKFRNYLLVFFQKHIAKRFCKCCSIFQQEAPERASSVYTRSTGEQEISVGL

Substance-K receptor = molecular target: T1, Substance-K receptor (Homo sapiens, UniProt P21452); format: cell membranes, CHO, Membrane; settings: cho; also: in other assays of this panel Not Active means under 50% inhibition at 10 µM
T1 sequence (P21452 whole entry): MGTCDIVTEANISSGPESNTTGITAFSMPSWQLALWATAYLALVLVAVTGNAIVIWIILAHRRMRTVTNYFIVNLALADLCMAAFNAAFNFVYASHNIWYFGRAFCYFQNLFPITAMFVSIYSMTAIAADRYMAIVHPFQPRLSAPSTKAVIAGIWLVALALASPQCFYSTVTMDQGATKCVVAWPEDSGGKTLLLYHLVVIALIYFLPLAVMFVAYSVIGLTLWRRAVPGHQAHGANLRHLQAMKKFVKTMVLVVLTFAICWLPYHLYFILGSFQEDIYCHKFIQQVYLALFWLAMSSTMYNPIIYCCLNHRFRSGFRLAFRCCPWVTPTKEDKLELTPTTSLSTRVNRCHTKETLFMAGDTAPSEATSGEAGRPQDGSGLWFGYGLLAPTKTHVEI

[5] = DRUGMATRIX: Leukotriene, BLT (LTB4) radioligand binding (ligand: [3H]LTB4); format: cell membranes, Membrane; settings: u-937; Not Active = under 50% inhibition at 10 µM
[6] = molecular target: Protein kinase C alpha type (Homo sapiens, UniProt P17252); format: cell-based; settings: sf9;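 also: inhibition of PKCalpha kinase activity measured in an enzyme assay with histone as the phosphorylation substrate; in other assays of this panel Not Active means under 50% inhibition at 10 µM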
[7] = molecular target: Kappa-type opioid receptor (Homo sapiens, UniProt P41145); assay: DRUGMATRIX: Opiate kappa (OP2, KOP) radioligand binding (ligand: [3H] Diprenorphine); format: cell membranes, HEK293, Membrane; settings: hek293; Not Active = under 50% inhibition at 10 µM
Sequence of Kappa-type opioid receptor (P41145 whole entry): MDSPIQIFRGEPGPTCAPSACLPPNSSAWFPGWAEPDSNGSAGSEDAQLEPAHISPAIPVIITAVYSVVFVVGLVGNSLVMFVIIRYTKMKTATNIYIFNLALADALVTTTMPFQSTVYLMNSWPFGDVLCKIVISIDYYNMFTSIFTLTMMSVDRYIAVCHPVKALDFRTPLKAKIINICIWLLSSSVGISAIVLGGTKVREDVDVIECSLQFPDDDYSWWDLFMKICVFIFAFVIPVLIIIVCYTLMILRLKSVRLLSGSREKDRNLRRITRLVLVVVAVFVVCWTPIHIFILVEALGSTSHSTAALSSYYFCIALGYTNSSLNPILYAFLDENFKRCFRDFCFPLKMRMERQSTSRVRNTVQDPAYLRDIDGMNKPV

[8] = molecular target: T2, C-C chemokine receptor type 4 (Homo sapiens, UniProt P51679); format: cell membranes, Membrane; settings: chem-1; also: in other assays of this panel Not Active means under 50% inhibition at 10 µM
T2 sequence (P51679 whole entry): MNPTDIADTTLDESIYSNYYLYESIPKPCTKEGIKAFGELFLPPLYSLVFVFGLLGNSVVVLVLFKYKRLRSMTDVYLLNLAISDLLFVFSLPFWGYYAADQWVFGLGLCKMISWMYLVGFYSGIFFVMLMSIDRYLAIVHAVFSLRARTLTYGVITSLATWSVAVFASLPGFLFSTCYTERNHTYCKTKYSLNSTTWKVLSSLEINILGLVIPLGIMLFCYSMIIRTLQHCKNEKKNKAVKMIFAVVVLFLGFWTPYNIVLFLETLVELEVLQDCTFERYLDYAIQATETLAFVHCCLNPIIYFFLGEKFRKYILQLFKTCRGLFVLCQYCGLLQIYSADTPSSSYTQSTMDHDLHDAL

[9] = molecular target: T3, C-X-C chemokine receptor type 2 (Homo sapiens, UniProt P25025); format: cell membranes, Membrane; settings: cho-k1; also: in other assays of this panel Not Active means under 50% inhibition at 10 µM
T3 sequence (P25025 whole entry): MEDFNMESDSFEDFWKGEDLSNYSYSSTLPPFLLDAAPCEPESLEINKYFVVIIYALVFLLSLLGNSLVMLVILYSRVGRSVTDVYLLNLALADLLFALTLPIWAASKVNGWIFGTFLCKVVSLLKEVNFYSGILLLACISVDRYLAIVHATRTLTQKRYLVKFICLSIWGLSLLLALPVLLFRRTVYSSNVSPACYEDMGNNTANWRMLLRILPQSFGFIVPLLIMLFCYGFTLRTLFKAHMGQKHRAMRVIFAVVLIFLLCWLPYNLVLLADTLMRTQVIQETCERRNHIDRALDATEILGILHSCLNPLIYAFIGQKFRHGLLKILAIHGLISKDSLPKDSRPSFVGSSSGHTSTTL

[10] = DRUGMATRIX: Atrial Natriuretic Factor (ANF) radioligand binding (ligand: [125I] ANF (rat)); format: cell membranes, Cavia porcellus, Dunkin-Hartley, Adrenal gland, Membrane; settings: Not Active = under 50% inhibition at 10 µM
[11] = molecular target: C-C chemokine receptor type 2 (Homo sapiens, UniProt P41597); format: cell membranes, CHO-K1, Membrane; settings: cho-k1; also: in other assays of this panel Not Active means under 50% inhibition at 10 µM
Sequence of C-C chemokine receptor type 2 (P41597 whole entry): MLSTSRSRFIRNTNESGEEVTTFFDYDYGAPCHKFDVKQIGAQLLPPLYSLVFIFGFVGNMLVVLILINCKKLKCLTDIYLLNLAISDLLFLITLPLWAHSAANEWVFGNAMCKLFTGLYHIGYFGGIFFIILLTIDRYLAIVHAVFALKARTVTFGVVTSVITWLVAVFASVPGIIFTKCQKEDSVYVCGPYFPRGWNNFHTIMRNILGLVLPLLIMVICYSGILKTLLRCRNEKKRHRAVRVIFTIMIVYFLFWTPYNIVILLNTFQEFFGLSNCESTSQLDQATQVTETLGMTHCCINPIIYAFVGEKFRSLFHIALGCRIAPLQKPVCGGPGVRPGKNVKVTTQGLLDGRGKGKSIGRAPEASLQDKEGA

[12] = molecular target: Mitogen-activated protein kinase 14 (Homo sapiens, UniProt Q16539); set-up: species or system Escherichia coli
Sequence of Mitogen-activated protein kinase 14 (Q16539 whole entry): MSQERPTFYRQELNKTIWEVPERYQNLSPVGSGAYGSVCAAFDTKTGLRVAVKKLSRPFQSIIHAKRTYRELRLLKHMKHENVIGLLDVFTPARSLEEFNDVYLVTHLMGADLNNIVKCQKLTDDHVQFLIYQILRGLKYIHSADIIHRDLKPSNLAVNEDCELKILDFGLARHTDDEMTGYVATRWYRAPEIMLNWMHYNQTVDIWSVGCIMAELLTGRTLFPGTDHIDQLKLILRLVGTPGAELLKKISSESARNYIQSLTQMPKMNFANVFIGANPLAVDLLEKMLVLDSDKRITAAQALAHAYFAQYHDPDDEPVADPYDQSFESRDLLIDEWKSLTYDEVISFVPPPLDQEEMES

[13] = molecular target: T4, Alpha-2C adrenergic receptor (Homo sapiens, UniProt P18825); assay: DRUGMATRIX: Adrenergic Alpha-2C radioligand binding (ligand: [3H] MK-912); format: cell membranes, Sf9, Membrane; settings: sf9
T4 sequence (P18825 whole entry): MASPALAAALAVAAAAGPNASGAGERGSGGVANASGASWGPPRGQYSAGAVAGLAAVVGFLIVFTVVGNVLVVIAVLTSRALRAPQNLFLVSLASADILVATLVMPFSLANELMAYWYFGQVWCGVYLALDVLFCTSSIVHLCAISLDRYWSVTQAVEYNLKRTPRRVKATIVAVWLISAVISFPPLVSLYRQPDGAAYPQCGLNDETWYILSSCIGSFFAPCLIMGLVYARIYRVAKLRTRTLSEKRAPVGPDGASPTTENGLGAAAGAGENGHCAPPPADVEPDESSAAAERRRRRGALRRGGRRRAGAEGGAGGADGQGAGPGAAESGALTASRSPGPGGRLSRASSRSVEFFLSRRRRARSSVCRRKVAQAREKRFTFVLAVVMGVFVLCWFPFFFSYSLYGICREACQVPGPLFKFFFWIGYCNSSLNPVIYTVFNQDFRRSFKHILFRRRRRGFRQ

[14] = molecular target: Delta-type opioid receptor (Homo sapiens, UniProt P41143); format: cell membranes, HEK293, Membrane; settings: hek293; also: in other assays of this panel Not Active means under 50% inhibition at 10 µM
Sequence of Delta-type opioid receptor (P41143 whole entry): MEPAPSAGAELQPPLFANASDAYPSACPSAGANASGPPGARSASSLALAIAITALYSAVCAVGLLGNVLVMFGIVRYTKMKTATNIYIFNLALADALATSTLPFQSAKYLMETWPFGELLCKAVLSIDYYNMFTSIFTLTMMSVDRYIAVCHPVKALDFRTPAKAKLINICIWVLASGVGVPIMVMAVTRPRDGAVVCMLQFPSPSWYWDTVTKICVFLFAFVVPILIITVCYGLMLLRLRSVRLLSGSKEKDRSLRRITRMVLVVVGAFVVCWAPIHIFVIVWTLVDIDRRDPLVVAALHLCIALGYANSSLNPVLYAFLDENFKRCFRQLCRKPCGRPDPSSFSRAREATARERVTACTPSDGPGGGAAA

Structure (SMILES) | IC50 [1] | IC50 [2] | IC50 (D(1A) dopamine receptor) | IC50 [3] | Ki [3] | IC50 [4] | IC50 (Substance-K receptor) | IC50 [5] | Ki [5] | IC50 [6] | IC50 [7] | IC50 [8] | IC50 [9] | IC50 [10] | Ki [10] | IC50 [11] | IC50 [12] | IC50 [13] | IC50 [14] | also measured
c1ccc2[nH]c(-c3cscn3)nc2c1 [THIABENDAZOLE] | Not Active | Not Active | Not Active | Not Active | Not Active | Not Active | Not Active | Not Active | Not Active | Not Active | Not Active | Not Active | Not Active | Not Active | Not Active | Not Active | Not Active | Not Active | Not Active | –
Cc1ccc(C(=O)C(C)CN2CCCCC2)cc1 (centres undefined) [TOLPERISONE] | Not Active | – | Not Active | Not Active | Not Active | Not Active | Not Active | Not Active | Not Active | Not Active | Not Active | Not Active | Not Active | Not Active | Not Active | Not Active | Not Active | Not Active | Not Active | pIC50 ([2]; read-out: IC50): 7.89; pKi ([2]; read-out: Ki): 8.25
NC(CO)(CO)CO [TROMETHAMINE] | Not Active | Not Active | Not Active | Not Active | Not Active | Not Active | Not Active | Not Active | Not Active | Not Active | Not Active | Not Active | Not Active | Not Active | Not Active | Not Active | Not Active | Not Active | Not Active | –
CN1[C@@H]2CC[C@H]1C[C@@H](OC(=O)c1c[nH]c3ccccc13)C2 [TROPISETRON] | Not Active | Not Active | Not Active | Not Active | Not Active | Not Active | Not Active | Not Active | Not Active | Not Active | Not Active | Not Active | Not Active | Not Active | Not Active | Not Active | Not Active | Not Active | Not Active | –
COc1cc(C(=O)NC2CCCNC2)cc(OC)c1OC (centres undefined) [TROXIPIDE] | Not Active | Not Active | Not Active | Not Active | Not Active | Not Active | Not Active | Not Active | Not Active | Not Active | Not Active | Not Active | Not Active | Not Active | Not Active | Not Active | Not Active | Not Active | Not Active | –
CC(C)[C@H](N)C(=O)OCCOCn1cnc2c(=O)nc(N)[nH]c21 [VALACYCLOVIR] | Not Active | Not Active | Not Active | Not Active | Not Active | Not Active | Not Active | Not Active | Not Active | Not Active | Not Active | Not Active | Not Active | Not Active | Not Active | Not Active | Not Active | Not Active | Not Active | –
CN[C@H](CC(C)C)C(=O)N[C@H]1C(=O)N[C@@H](CC(N)=O)C(=O)N[C@H]2C(=O)N[C@H]3C(=O)N[C@H](C(=O)N[C@H](C(=O)O)c4cc(O)cc(O)c4-c4cc3ccc4O)[C@H](O)c3ccc(c(Cl)c3)Oc3cc2cc(c3O[C@@H]2O[C@H](CO)[C@@H](O)[C@H](O)[C@H]2O[C@H]2C[C@](C)(N)[C@H](O)[C@H](C)O2)Oc2ccc(cc2Cl)[C@H]1O [VANCOMYCIN] | Not Active | Not Active | Not Active | Not Active | Not Active | Not Active | Not Active | Not Active | Not Active | Not Active | Not Active | Not Active | Not Active | Not Active | Not Active | Not Active | Not Active | Not Active | Not Active | –
